Test results from patent publication US6441184B1, “Fused heteroaromatic glucokinase activators” (Hoffmann-LA Roche Inc., priority 2000, dated 2002).

The compounds below were run on C57BL/6J mice (assay: Glucokinase activator in vivo screen protocol (blood glucose after oral dosing)). Details: administered orally, 50 mg/kg, C57BL/6J mice fasted two hours; active = significant (p<0.05) decrease in blood glucose vs vehicle for two consecutive time points.
Experimental: Glucokinase Activator in vivo Screen Protocol
C57BL/6J mice are orally dosed via gavage with Glucokinase (GK) activator at 50 mg/kg body weight following a two hour fasting period. Blood glucose determinations are made five times during the six hour post-dose study period.
Mice (n=6) are weighed and fasted for a two hour period prior to oral treatment. GK activators are formulated at 6.76 mg/ml in Gelucire vehicle (Ethanol:Gelucire44/14:PEG400q.s. 4:66:30 v/w/v. Mice are dosed orally with 7.5 μL formulation per gram of body weight to equal a 50 mg/kg dose. Immediately prior to dosing, a pre dose (time zero) blood glucose reading is acquired by snipping off a small portion of the animals tail (−1 mm) and collecting 15 μL blood into a heparinized capillary tube for analysis. Following GK activator administration, additional blood glucose readings are taken at 1, 2, 4, and 6 hours post dose from the same tail wound. Results are interpreted by comparing the mean blood glucose values of six vehicle treated mice with six GK activator treated mice over the six hour study duration.

SMILES	glucokinase activator in vivo activity
CS(=O)(=O)c1ccc([C@@H](CC2CCCC2)C(=O)Nc2nc3ccccc3s2)cc1Cl [Example 19, N-Benzothiazol-2-yl-2(R)-(3-chloro-4-methanesulfonyl-phenyl)-3-cyclopentyl-propionamide]	excellent glucokinase activator in vivo activity
CS(=O)(=O)c1ccc(C(CC2CCCC2)C(=O)Nc2nc3ccccc3[nH]2)cc1Cl (stereo not drawn) [Example 20, N-(1H-Benzoimidazol-2-yl)-2-(3-chloro-4-methanesulfonyl-phenyl)-3-cyclopentyl-propionamide]	excellent glucokinase activator in vivo activity
CS(=O)(=O)c1ccc(C(CC2CCCC2)C(=O)Nc2ccc3ccccc3n2)cc1Cl (stereo not drawn) [Example 22, 2-(3-Chloro-4-methanesulfonyl-phenyl)-3-cyclopentyl-N-quinolin-2-yl-propionamide]	excellent glucokinase activator in vivo activity
